Source: US20230165973A1, “COMPOSITIONS AND METHODS FOR DELIVERING MESSENGER RNA” (ARBUTUS BIOPHARMA CORPORATION, priority 2013, published 2023)
Several values for one entry are separate records, joined by “and”; a condition that tells them apart may be missing. Identical values can stand only once.

What was measured:
[1] = system: Balb/C mice; assay: Luciferase assay of Example 1 with tetraalkyl lipids, liver (Example 8); type: in vivo, mouse; details: particles comprising the lipid, assay described in Example 1
Procedure: In the liver model, LNP were dosed at 0.5 mg/kg in the naïve Balb/C mice (n=5). Six hours following injection, the mice were euthanized and the livers were removed, weighed, and placed in lysing matrix tubes (containing one ceramic bead) on ice.
(§1) All sample processing procedures were performed on ice. Tissues were homogenized and centrifuged in an Eppendorf microfuge at 3000 rpm at 4° C. for 10 minutes. After centrifugation, 20 μL of homogenate was aliquoted in duplicate into a white 96-well luminometer plate. Firefly luciferase […] was then analyzed on the EG&G Berthold Microplate Luminometer LB using the Promega Luciferase Assay System. The luciferase activity within the wells was determined by comparing the resulting Relative Light Units (RLUs) for the homogenates to a standard curve prepared from 20 μL of firefly luciferase. A quenching factor was assigned to each tissue to control for natural quenching from the homogenates. This was determined using luciferase-spiked tissue from PBS treated mice.
In particular, the tetraalkyl lipids mediated an enhanced level of delivery of luciferase mRNA to living cells than the established benchmark dialkyl lipid 8 shown in Table 8.

[2] = system: naïve Balb/C mice; assay: Luciferase liver model, aminolipid potency comparison (Example 2); type: in vivo, mouse; details: intravenously, 0.5 mg/kg total mRNA, six hours following injection
Procedure: (§2) The experiments described in this Example 2 used a firefly luciferase mRNA (“mLuc”), fully modified with pseudouridine and 5-methylcytidine replacing uridine and cytidine respectively. The LNP formulation used in these studies have the following general lipid composition (molar ratios): PEG-lipid (PEG2000-C-DMA (1.6 mol %); appropriate aminolipid (54.6 mol %); cholesterol (32.8 mol %); and DSPC (10.9 mol %). A lipid stock was prepared with the appropriate lipids dissolved in ethanol (12.6 mM). The mLuc stock was made up in a 40 mM EDTA buffer at 0.366 mg/mL in 40 mM EDTA. The two stocks were combined using the Jeffs et al method (Pharm. Research (2005), 22(3), pages 362-372), blending in a t-connector and diluted into Phosphate Buffered Saline, pH 7.4. Buffer exchange was then performed via overnight bag dialysis against 10× volume of PBS. After dialysis, LNP were concentrated by centrifugation in Vivaspin-6 or Vivaspin-20 units (MWCO 100 k) from GE Healthcare. The LNP were then sterile filtered (0.2 μm filter). Concentration of the LNP was determined using RiboGreen and a Varian Cary Eclipse Fluorimeter. Particle size and polydispersity were determined using a Malvern Nano Series Zetasizer.
LNP containing a luciferase mRNA payload were dosed at 0.5 mg/kg in naïve Balb/C mice (n=3). Six hours following injection, the mice were euthanized and livers were removed, weighed, and placed in lysing matrix tubes (containing one ceramic bead) on ice. PBS treatment groups were included to determine the background level of quenching of luciferase activity caused by the tissue homogenate in the Luciferase assay. Following collection, the tissues from these PBS treated animals were spiked with 50 μL of 100 ng/mL Luciferase solution in 1×CCLR (Cell Culture Lysis Reagent). Tissues were stored at −80° C. until Luciferase assay was performed.
as §1, with “rpm &” for “rpm at”, “resulting RLUs” for “resulting Relative Light Units (RLUs)”
The various formulations described were also assessed for potency in the mouse liver model. As an additional control, the use of the commercially available delivery reagent TransIT (Mirus) has been described in the literature for delivery of mRNA. A 0.05 mg/mL solution of TransIT-mRNA complex was prepared as follows. 50 μL of 1 mg/mL mRNA was added to 860 μL of DMEM, and to this solution the reagents from the TransIT-mRNA kit (Mirus) were added. In sequential order, 35 μL of the mRNA Boost reagent was added followed by 55 μL of the TransIT-mRNA reagent. The final solution was then incubated for 2-5 minutes before intravenous or intraperitoneal dosing.
All formulations were administered intravenously at a dose of 0.5 mg/kg total mRNA.

[3] = Formulability: LNP particle size, polydispersity and mRNA encapsulation (Example 2); type: physicochemical; details: mLuc LNP with the aminolipid at 54.6 mol %; 12.6 mM lipid stock
Procedure: as §2
The effect of the choice of aminolipid on parameters such as formulability and potency in the mRNA formulations was examined. As benchmarks, we selected the dilinoleyl lipids 5, 6, 7, and 8. […] We also selected a range of lipids with hydrophobic domains consisting of multiple (3 or 4) alkyl chains; 10, 9, 11, 13, 14, 17, and 18. Formulations were prepared as described above, using a 12.6 mM lipid stock.

[4] = Reproducibility of lipid particle formulation; type: physicochemical; details: multiple mLuc LNP formulations; lipid stock 8.3-19.0 mM total lipid
Procedure: Two aminolipids were selected to examine the reproducibility of lipid particle formulation. The benchmark dilinoleyl aminolipid MC3 was compared to the short trialkyl lipid 13-B43.
Multiple formulations were made, using the following composition (expressed as molar percentages): PEG-lipid (PEG2000-C-DMA) (1.6 mol %); amino lipid (54.6 mol %); cholesterol (32.8 mol %); and DSPC (10.9 mol %), according to the general procedures described above. The lipid stock was prepared in ethanol (ranging from 8.3-19.0 mM total lipid). The mRNA stock was prepared at 0.366 mg/mL in 40 mM EDTA. Buffer exchange was then performed via overnight bag dialysis against 10× volume of PBS. Samples were then concentrated to […] mRNA by centrifugation in Vivaspin-20 units (MWCO 100 k) from GE Healthcare. The LNP were then sterile filtered. Concentration of the LNP was determined using RiboGreen and a Varian Cary Eclipse Fluorimeter. Particle size and polydispersity were determined using a Malvern Nano Series Zetasizer.

Row | SMILES | % Encaps (Percentage Encapsulation) [3] [%] | PDI (polydispersity index) [3] | Zavg (average lipid particle diameter) [3] [nm] | Particle size [4] | Polydispersity Index [4] | Activity in luciferase assay [1] | Luciferase protein in ng per g of liver [2] | % Encaps of mLuc [4]
1 | CCCCCCCCC(CCCCCC)CC(CC(CCCCCC)CCCCCCCC)OC(=O)CCCCN(C)C (stereo not drawn) [Compound 35, 9,13-dihexylhenicosan-11-yl 5-(dimethylamino)pentanoate] | – | – | – | – | – | 1,412,464 pg/g liver tissue | – | –
2 | CCCCC/C=C\CCCC(CCC/C=C\CCCCC)C(CC(CCCC)CCCCCC)OC(=O)CCCCN(C)C (stereo not drawn) [Compound 43, (Z)-7-butyl-10-((Z)-dec-4-en-1-yl)icos-14-en-9-yl 5-(dimethylamino)pentanoate] | – | – | – | – | – | 919,590 pg/g liver tissue | – | –
3 | CCCCC/C=C\C/C=C\CCCCCCCCC(OC(=O)CCCCN(C)CC)C(O)(CCCCCCCC/C=C\C/C=C\CCCCC)CCCCCCCC/C=C\C/C=C\CCCCC (stereo not drawn) [Compound 10, (6Z,9Z,29Z,32Z)-20-hydroxy-20-((9Z,12Z)-octadeca-9,12-dienyl)octatriaconta-6,9,29,32-tetraen-19-yl 5-(ethyl(methyl)amino)pentanoate] | – | – | – | – | – | – | 203.47 ng per g of liver | –
4 | CCCCCCCCC(CCCCCC)CC(CC(CCCCCC)CCCCCCCC)OC(=O)CCCCCN(C)C (stereo not drawn) [Compound 37, 9,13-dihexylhenicosan-11-yl 6-(dimethylamino)hexanoate] | – | – | – | – | – | 2,228,526 pg/g liver tissue | – | –

Further lines, with some results ahead:

Row | % Encaps (Percentage Encapsulation) [3] [%] | PDI (polydispersity index) [3] | Zavg (average lipid particle diameter) [3] [nm] | Particle size [4] | Polydispersity Index [4] | SMILES | Activity in luciferase assay [1] | Luciferase protein in ng per g of liver [2] | % Encaps of mLuc [4]
5 | 62 | 0.06 | 95 | – | – | CCCCC/C=C\CCCC(CCC/C=C\CCCCC)C(CCC/C=C\CCCCC)OC(=O)CCCN(C)C (stereo not drawn) [Compound 9] | – | 968.83 ng per g of liver | –
6 | 88 | 0.08 | 117 | – | – | CCC/C=C\CCC(CC/C=C\CCC)CC(OC(=O)CCCCN(C)C)C(CC/C=C\CCC)CC/C=C\CCC (stereo not drawn) [Compound 18] | – | 1388.39 ng per g of liver | –
7 | 50 | 0.11 | 158 | 134 nm and 151 nm and 158 nm and 119 nm | 0.11 and 0.07 and 0.08 and 0.14 and 0.12 | CCCCC/C=C\C/C=C\CCCCCCCCC(CCCCCCCC/C=C\C/C=C\CCCCC)OC(=O)CCCN(C)C [Compound 7, (6Z,9Z,28Z,31Z)-heptatriaconta-6,9,28,31-tetraen-19-yl 4-(dimethylamino)butanoate] | – | 369.85 ng per g of liver | 56% and 63% and 49% and 50% and 69% and 52%
8 | 78 | 0.10 | 138 | – | – | CCCCC/C=C\CCCC(CCC/C=C\CCCCC)C(CC/C=C\CCCCC)OC(=O)CCCCN(C)C (stereo not drawn) [Compound 19] | – | – | –
9 | 57 | 0.13 | 144 | – | – | CCCCC/C=C\C/C=C\CCCCCCCCC(CCCCCCCC/C=C\C/C=C\CCCCC)OCCCN(C)C [Compound 8] | 774,159 pg/g liver tissue | 264.90 ng per g of liver | –
